Test: Human HepG2 cell viability assay in 384 well format
Format: toxicity, cell-based
Design: dose 125 nL, time 70.5 hour; concentration not given beside the values
Conditions: HepG2 cells, read-out: Inhibition

SMILES	cytotoxicity at 70.5 h [%]
CC(=O)N1CCCC(C(=O)N2CCC(=Cc3cccc(F)c3)CC2)C1 (stereo not given)	-9.9
O=C1[C@H]2CN(c3cnccn3)C[C@H]2CN1CC1CC1	-12.5
CC1CN(Cc2nccn2C)CCN1c1ccc2nncn2n1 (stereo not given)	6.8
CCCC(C)C(=O)N1CCC(n2cccc2C(=O)OC)CC1 (stereo not given)	-2.08
COc1cc(CN2CCCC2c2cccc(F)c2)cc(OC)c1OC (stereo not given)	-11.4
O=C1CC(c2ccncc2)C2(CCN(C(=O)NC3CC3)CC2)N1 (stereo not given)	-1.57
O=C(CC1CCCO1)Nc1ccc2c(ccn2CCN2CCOCC2)c1 (stereo not given)	-8.05
CCN1CCC(N2CCC(c3nc(C)cc(C)n3)C2)CC1 (stereo not given)	-2.1
Fc1ccc(CN2CCCC(c3nnc(-c4cnccn4)o3)C2)cc1F (stereo not given)	0.0269
CS(=O)(=O)NCC1(O)CCCN(C(=O)CCn2cc(Cl)cn2)CC1 (stereo not given)	-1.38
Cc1cccc(SC2CCN(C(=O)CCNS(C)(=O)=O)CC2)c1	-13.1
COc1ccc(C2=CCN(C(=O)CN(CC(N)=O)C(C)C)CC2)cc1	-4.3
Cc1c(Cl)c(C(F)(F)F)nn1C(C)C(=O)NN1CCN(C)CC1 (stereo not given)	-3.23
COc1ccccc1OCCCc1cc(C)nc(N)n1	-7.2
Cc1ccccc1C(=O)NCc1ccnc(N(C)C)c1	0.094
CCc1noc(CN2C[C@H]3CC[C@@H]2CN(C2Cc4ccccc4C2)C3)n1	4.55
CCOCC(O)CN1CCN(C(=O)c2cc(F)cc(F)c2)CC1 (stereo not given)	-2.71
CC(=O)NCCc1ccc(S(=O)(=O)N(CC(C)C)C(C)C)s1	33
O=C(CN1CCCC1Cn1cncn1)Nc1ccnn1C1CCCC1 (stereo not given)	-4.96
CC1(c2ncc(CN3CCN(c4ncccn4)CC3)cn2)CCCCO1 (stereo not given)	-9.22
CN(C)CC(NC(=O)c1ccn(C)c(=O)c1)c1ccccc1 (stereo not given)	0.262
Cc1cc2nc(C(C)C)cc(N3CCC(N(C)C)C3)n2n1 (stereo not given)	2.59
CCc1nccn1-c1cccc(C2CCCN(C3CCCCC3)C2)n1 (stereo not given)	-0.595

SMILES	cytotoxicity at 70.5 h [%]
Cc1cnc2cc(C3CCN(C(=O)c4ccncc4)CC3)[nH]c2n1	-12.8
CC(CCCC(C)(C)O)Nc1ccc(-c2nccn2C)nn1 (stereo not given)	0.443
c1cc(C2CCN(Cc3ccc4c(c3)OCO4)CC2)ccn1	-2.31
CC(c1ccon1)N(C)Cc1cc(O)c2cc(F)ccc2n1 (stereo not given)	-10.6
O=C(NC1CCCCC1)N1C[C@@H]2OCCN(C(=O)c3ccco3)[C@@H]2C1	0.645
Cc1c(C(=O)N2CCCOCC2)nnn1-c1cccc2cnccc12	-0.438
O=C(NCC(=O)N1CCCCC1)c1sccc1C1CC1	7.84
CC(C)c1cnc(CN2CCCC(c3ccn[nH]3)C2)o1 (stereo not given)	-7.68
CCc1ccc2c(C3CN(S(C)(=O)=O)C3)ncn2c1	9.29
NCC(c1ccccc1)N1CCc2sccc2C1 (stereo not given)	5.18
COCC(=O)N1CCCCC1c1nccc(C)n1 (stereo not given)	3.46
COc1ccc(F)cc1CSCC(=O)N(C)CCC#N	0.901
O=C(Nc1ccc(CCN2CCC(O)CC2)cc1)C1CCOCC1	9.76
O=C(COc1ccc2c(c1)CCC2)N1CCOCC1c1ncon1 (stereo not given)	-10.4
Cc1ccoc1C(=O)N1CCC(n2cc(-c3ccsc3)nn2)CC1	-12.5
Cc1ccc(NC2CCN(C(=O)c3cscn3)CC2)nn1	0.539
CN(Cc1ccccc1)CC(O)Cn1cnc2c(cnn2C)c1=O (stereo not given)	-5.87
O=C(C1CCOC1)N1CCN(CC2CC2)c2ccccc21 (stereo not given)	-6.39
N#Cc1cccc(OCCN2CCC(C(=O)N3CCOCC3)CC2)c1	-11.2
Cc1cccc(CN2CC3(CCN(C(N)=O)CC3)OCC2=O)n1	-10.4
CCn1cnnc1C1CCN(C(=O)c2ccc3ccccc3n2)CC1	-3.84
CCNc1nnc(SCc2nnc(C(C)(C)C)o2)s1	-8.88
Cc1nc(N2CCOCC2)nc2c1CCN(Cc1ccsc1)CC2	1.35

SMILES	cytotoxicity at 70.5 h [%]
CCOc1ccccc1NC(=O)NCCc1ccoc1	12.2
Cn1cc(-c2csc(CN3CCOCC3)n2)cn1	-1.08
CCc1nc2n(n1)CC(NCc1ncc(-c3ccccc3)o1)CC2 (stereo not given)	-5.1
CCOCCn1nc(C)cc1C(=O)N1CCC2(CC1)[C@H](O)C[C@@H]2OCC	0.508
Cc1ccsc1CN(C)CCc1scnc1C	14.4
Cc1ccccc1COCCOCn1c(C)cc(=O)[nH]c1=O	-4.1
O=C(Nc1cccnc1)[C@@H]1COC[C@H]2CN(C3CCCC3)C[C@H]21	-124
CN(C)C(=O)COCC1CN(Cc2ccsc2)Cc2nccn2C1 (stereo not given)	-7.22
c1ccc(-c2cc(NCCCC3CCOC3)n3nccc3n2)cc1 (stereo not given)	-0.688
Cc1nc(O)cc(CNC(=O)CC[C@@H]2CCCN3CCCC[C@H]23)n1	-9.94
Cc1ccc(-c2cc(N)c(=O)n(CC(=O)NC3CCCCC3)n2)s1	-17.9
O=C(c1ccn(-c2cccc(F)c2)n1)N1CCCC(n2cccn2)C1 (stereo not given)	-15.2
CCOCc1ccc(NC(=O)NC2CCCn3nc(CC)nc32)cc1 (stereo not given)	-7.72
CCC(O)(CNCc1cc[nH]n1)c1ccc(Br)cc1 (stereo not given)	6.78
N#Cc1cccc(N2CCCC3(CCC(=O)N(C4CCCC4)C3)C2)n1 (stereo not given)	4.95
O=C1N[C@@H]2CCN(C(=O)C3CCCC3)[C@@H]2C(=O)N1c1ccc(F)cc1	-2.52
Cn1c(Cn2ccnc2)nnc1C1CCCN(CC(C)(C)C)C1 (stereo not given)	-8.29
COc1ccccc1OC1CN(C(=O)C2CNCC(=O)N2)C1 (stereo not given)	-9.64
Cn1c(Cn2ccnc2)nnc1C1CCN(C(=O)C2(C)CC2)CC1	-9.41
CCCC(=O)N1Cc2ccccc2CC2(CCN(C)C2)C1 (stereo not given)	22.5
O=C(Cc1ccsc1)N1CCCC(c2n[nH]c3ncccc23)C1 (stereo not given)	-5.61
CCCn1ncc(C(=O)N2CCN(C3Cc4ccccc4C3)CC2)c1C	-0.105
CC(C)(C)C(=O)NCCc1cc(N2CCOCC2)nc(NC2CC2)n1	-9.36

SMILES	cytotoxicity at 70.5 h [%]
CC1(C)CN(C(=O)c2cnc(CN3CCCC3)s2)CC[C@]1(C)O	-0.621
CC(C)(C)OC(=O)N1CCC(C(=O)NCc2ccccc2)C1 (stereo not given)	7.59
CS(=O)(=O)N1CCN(C(=O)c2cc(-c3cccs3)cs2)CC1	-5.33
Cc1nc(-c2ccnc(N3CCNCC3)n2)no1	-1.44
CC(=O)N1CCCC1C(=O)N1CCC(=Cc2cccc(F)c2)CC1 (stereo not given)	-14.8
CCc1nc(-c2cncnc2C2CCCNC2)no1 (stereo not given)	-1.26
COc1cc2nc(C)sc2cc1NC(=O)C(C)NC(N)=O (stereo not given)	1.54
Fc1cnc(N2CCCC3(CN(Cc4ccccc4)CCO3)C2)nc1 (stereo not given)	-4.05
O=C(O)c1ncccc1N1CCCCC1	-14.8
COc1cc(C)ccc1S(=O)(=O)N1CC[C@](C)(O)[C@H](C)C1	-5.97
O=C(C1CC1)N1C[C@@H](F)[C@@H](OCc2nc3ccccc3[nH]2)C1	4.35
COCc1nc2n(n1)CCCC2Nc1nc(C)ns1 (stereo not given)	24.4
CCNC(=O)[C@@H]1C[C@H](N)CN1c1cc(CC)nc(N(C)C)n1	-4.05
COC(C)C(=O)NS(=O)(=O)c1cccc2cc(C)cnc12 (stereo not given)	-2.88
CN(C)Cc1nnc(C(=O)N(C)Cc2ccc(C(F)(F)F)cc2)o1	-1.19
Cc1ccc([C@]2(O)CC[C@H]3CN(Cc4ccccc4F)C[C@H]32)nc1	-9.24
O=C(C1CNCCO1)N1CCC(c2cc(N3CCCC3)ncn2)CC1 (stereo not given)	14.8
Cc1cccc(OCCNC(=O)CN2CCN(C)CC2C)c1 (stereo not given)	25.2
CCC(C)[C@H](NC(=O)c1cc(F)ccc1-n1cnnn1)C(=O)OC (stereo not given in full)	-13.4
O=C([C@H]1CN(Cc2ccc(F)cc2)C[C@H]2OCC[C@@H]12)N1CCCO1	-7.77
Cc1cc(N)nc(SC2CCN(c3ccccc3)C2=O)n1 (stereo not given)	-2.2
Cc1ncc(CNCC2CCCN2c2cccnn2)s1 (stereo not given)	-19.7
CN(Cc1cccs1)C(=O)CN1CCCC(Cn2cncn2)C1 (stereo not given)	-5.28

SMILES	cytotoxicity at 70.5 h [%]
C[C@@H]1CCC[C@H](C)N1CC(=O)N1CCc2[nH]c(-c3ccccc3)nc2C1	27
Cc1ccc(N2CC[C@H]3O[C@@H](C(=O)N4CCCCO4)CC[C@H]32)nn1	-4.7
CC(C)CC1(C(=O)NCCc2nncn2C2CC2)CCC1	-3.78
Cc1cc(C(=O)NC(C)CC(=O)c2cccs2)n(C)n1 (stereo not given)	-12.7
COCC(=O)N1CCN2C(=O)OC[C@H]2C1	3.16
O=c1cc(CN(CCO)C2CC2)nc2ccccn12	-3.82
Cc1ccc(CNC(=O)CN2CCCC(Cn3cncn3)C2)s1 (stereo not given)	22.1
COCc1c(C(=O)NC2CCCC2)nnn1-c1ccc(C)cc1	22.4
CCCc1noc(CN2CCOCC2C)n1 (stereo not given)	20.1
COc1cc(NC(=O)N(C)CC2CC2)ncn1	-7.89
Cc1ccc(-c2cn[nH]c2C2CCCN(c3cnccn3)C2)cc1 (stereo not given)	10.6
CCOc1ccc(S(=O)(=O)NC(=O)c2c(C)noc2C(C)C)cc1	1.8
Cn1ccc(CN2CCC(Oc3ccccc3)CC2)cc1=O	-12
CN1CC2(CCN(c3ncnc4c3CCNC4)CC2)OC1=O	-9.3
COc1ccccc1OCCNCCn1cccn1	-10.7
CC(C)c1nccc(CN2CCCC(O)(CN(C)C)C2)n1 (stereo not given)	15
Cc1ccc2oc(SCC(=O)NC(C)(C)C)nc2n1	-6.39
CCOc1ccccc1NC(=O)NCc1ccoc1	-1.18
Cc1ccc(C)c(Oc2ccc(CNC(=O)C3CNC(=O)N3)cn2)c1 (stereo not given)	-1.21
CCOC1CCC2(CCN(C(=O)c3csnn3)CC2)c2ccccc21 (stereo not given)	36.5
CN(Cc1ccncn1)C(=O)CCc1[nH]nc2c1CCCC2	-5.7
c1ccc2c(c1)CC(N1CCCN(Cc3cccc4nonc34)CC1)C2	21.6
COc1cccc(NC(=O)NC(C)(C)c2noc(C)n2)c1	-4.79
